In paper PMC12198368, “The mitochondrial methylation potential gates mitoribosome assembly” (Nature Communications, 2025):

Assays:
Assay in all cases: cryo-EM structure of the complex
[1] = molecular target: T1, GTP-binding protein 7 GTPBP7 (Mus musculus, UniProt Q8R2R6); details: 0.5 mM GMPPNP in lysis and resuspension buffers, 10 mM Mg(OAc)2, BS3 cross-linked; pre-hydrolysis (closed) conformation; mtLSU states B1 and B2
T1 construct: gene Mtg1; BS3 cross-linked
T1 sequence (Q8R2R6 1-326): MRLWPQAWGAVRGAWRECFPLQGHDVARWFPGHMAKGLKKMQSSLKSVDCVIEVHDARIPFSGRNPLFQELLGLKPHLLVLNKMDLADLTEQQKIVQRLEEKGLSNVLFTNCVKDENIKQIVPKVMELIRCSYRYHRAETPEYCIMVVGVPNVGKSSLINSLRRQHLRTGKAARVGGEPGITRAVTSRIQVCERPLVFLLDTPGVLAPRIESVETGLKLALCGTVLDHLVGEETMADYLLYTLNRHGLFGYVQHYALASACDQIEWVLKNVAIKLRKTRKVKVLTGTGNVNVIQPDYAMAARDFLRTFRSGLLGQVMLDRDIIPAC

[2] = molecular target: T2, GTP-binding protein 10, GTPBP10 (Mus musculus, UniProt Q8K013); details: 0.5 mM GMPPNP in lysis and resuspension buffers, 10 mM Mg(OAc)2, BS3 cross-linked; relatively poor local resolution, ligand placed in binding pocket; mtLSU states B1 and B2
T2 construct: BS3 cross-linked
T2 sequence (Q8K013 1-366): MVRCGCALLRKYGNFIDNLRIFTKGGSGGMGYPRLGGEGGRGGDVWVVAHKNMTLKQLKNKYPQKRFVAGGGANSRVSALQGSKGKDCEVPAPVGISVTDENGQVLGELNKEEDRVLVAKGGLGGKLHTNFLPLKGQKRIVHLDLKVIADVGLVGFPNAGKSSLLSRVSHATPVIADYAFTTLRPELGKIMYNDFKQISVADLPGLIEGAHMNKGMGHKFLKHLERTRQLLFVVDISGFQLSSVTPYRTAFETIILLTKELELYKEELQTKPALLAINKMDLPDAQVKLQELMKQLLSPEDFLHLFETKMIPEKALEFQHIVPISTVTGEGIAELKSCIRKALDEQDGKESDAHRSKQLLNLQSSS

[3] = molecular target: rRNA methyltransferase 2, MRM2 (Mus musculus, UniProt Q9CPY0); format: binding; details: mtLSU state D; endogenous ligand, not added; SAM-depleted mitochondria; native sample, no GMPPNP
Sequence of rRNA methyltransferase 2, MRM2 (Q9CPY0 25-246): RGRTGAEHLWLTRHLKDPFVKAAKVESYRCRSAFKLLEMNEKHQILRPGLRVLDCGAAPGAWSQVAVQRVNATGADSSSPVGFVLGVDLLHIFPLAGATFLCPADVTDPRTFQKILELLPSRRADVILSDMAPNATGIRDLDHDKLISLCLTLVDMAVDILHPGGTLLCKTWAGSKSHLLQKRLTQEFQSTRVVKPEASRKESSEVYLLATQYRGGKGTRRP

| Compound | cryo-EM structure of the complex [1] | cryo-EM structure of the complex [2] | cryo-EM structure of the complex [3] |
| --- | --- | --- | --- |
| Nc1nc2c(ncn2[C@@H]2O[C@H](COP(=O)(O)OP(=O)(O)NP(=O)(O)O)[C@@H](O)[C@H]2O)c(=O)[nH]1 [GMPPNP] | GTPBP7 adopts its GMPPNP-bound pre-hydrolysis conformation as observed previously | A molecule of GMPPNP was placed in the binding pockets of GTPBP7 and GTPBP10. |  |
| Nc1ncnc2c1ncn2[C@@H]1O[C@H](CSCC[C@H](N)C(=O)O)[C@@H](O)[C@H]1O [SAH] |  |  | A molecule of SAH was placed in the binding pocket of MRM2 |
